Literature values in US8092822B2, “Coatings including dexamethasone derivatives and analogs and olimus drugs” (Abbott Cardiovascular Systems Inc., priority 2008, dated 2012).

Experiments:
[1] = test system: endothelial cell proliferation
[2] = test system: human coronary artery endothelial cells; details: in vitro
[3] = test system: endothelial migration

Compound	inhibition of endothelial cell proliferation [1]	inhibition of migration of human coronary artery endothelial cells [2]	effect on endothelial migration [3]
CC(=O)O[C@H]1C(=O)[C@@]2(C)[C@H]([C@H](OC(=O)c3ccccc3)[C@]3(O)C[C@H](OC(=O)[C@H](O)[C@@H](NC(=O)c4ccccc4)c4ccccc4)C(C)=C1C3(C)C)[C@]1(OC(C)=O)CO[C@@H]1C[C@@H]2O [paclitaxel, Paclitaxel]	inhibit	inhibits	–
C[C@@H]1C[C@H]2[C@@H]3CCC4=CC(=O)C=C[C@]4(C)[C@@]3(F)[C@@H](O)C[C@]2(C)[C@@]1(O)C(=O)CO [dexamethasone, Dexamethasone]	–	–	positive effect
CO[C@H]1C[C@@H]2CC[C@@H](C)[C@@](O)(O2)C(=O)C(=O)N2CCCC[C@H]2C(=O)O[C@H]([C@H](C)C[C@@H]2CC[C@H](n3cnnn3)[C@H](OC)C2)CC(=O)[C@H](C)/C=C(\C)[C@@H](O)[C@@H](OC)C(=O)[C@H](C)C[C@H](C)/C=C/C=C/C=C/1C [zotarolimus]	inhibit	–	–
